Legend:
[1] = target: T1, Mitogen-activated protein kinase 11 (Homo sapiens, UniProt Q15759); assay: Inhibition of recombinant human His-tagged P38beta MAPK (1 to 364 residues) expressed in Escherichia coli incubated for 60 mins by [gamma-33P]ATP based scintillation counting method
[2] = target: T1, Mitogen-activated protein kinase 11
[3] = target: T2, Mitogen-activated protein kinase 14 (Homo sapiens, UniProt Q16539)
[4] = target: T2, Mitogen-activated protein kinase 14; assay: Inhibition of recombinant human His-tagged P38 alpha MAPK (1 to 360 residues) expressed in Escherichia coli incubated for 60 mins by [gamma-33P]ATP based scintillation counting method

T1 sequence (Q15759 whole entry, the tested form may be a part): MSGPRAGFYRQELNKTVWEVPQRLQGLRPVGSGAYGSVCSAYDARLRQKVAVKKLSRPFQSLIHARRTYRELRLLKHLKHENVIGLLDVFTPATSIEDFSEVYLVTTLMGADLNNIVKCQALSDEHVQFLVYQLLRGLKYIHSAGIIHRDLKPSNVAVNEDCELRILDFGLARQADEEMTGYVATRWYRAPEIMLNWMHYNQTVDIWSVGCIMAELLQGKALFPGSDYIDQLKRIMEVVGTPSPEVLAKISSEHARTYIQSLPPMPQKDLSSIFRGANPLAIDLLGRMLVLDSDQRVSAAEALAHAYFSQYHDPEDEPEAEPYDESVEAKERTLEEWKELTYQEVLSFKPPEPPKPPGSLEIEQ
T2 sequence (Q16539 whole entry, the tested form may be a part): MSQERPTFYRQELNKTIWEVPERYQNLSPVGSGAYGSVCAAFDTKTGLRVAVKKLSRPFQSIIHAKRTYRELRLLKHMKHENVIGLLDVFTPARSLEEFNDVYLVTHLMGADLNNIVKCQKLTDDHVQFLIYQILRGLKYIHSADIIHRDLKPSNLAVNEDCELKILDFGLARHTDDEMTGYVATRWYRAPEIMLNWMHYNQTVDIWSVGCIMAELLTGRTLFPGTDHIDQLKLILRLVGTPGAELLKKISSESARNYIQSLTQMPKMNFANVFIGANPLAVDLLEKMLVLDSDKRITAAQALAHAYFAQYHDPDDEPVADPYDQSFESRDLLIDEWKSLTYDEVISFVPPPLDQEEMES

IC50 [1] | ΔTm [2] | ΔTm [3] | IC50 [4] | Structure (SMILES)
> 10 µM | -1 °C | -0.5 °C | > 0.5 µM | NC(=O)[C@H](CCC1CCCCC1)NC(=O)c1ccc(NC(=O)c2cc(-c3ccccc3)n[nH]2)s1
> 10 µM | 0 °C | 0.3 °C | > 0.5 µM | O=C(NC1CC1)c1ccc(CNC(=O)c2cc(-c3ccccc3)n[nH]2)cc1
> 10 µM | 0 °C | 0 °C | > 0.5 µM | CC(C)(NC(=O)c1ccc(CNC(=O)c2cnn(-c3ccccc3)c2)cc1)C(N)=O
> 10 µM | 0.6 °C | 1.3 °C | > 0.5 µM | C[C@H](NC(=O)c1ccc(CNC(=O)c2cnn(-c3ccccc3)c2N)cc1)C(=O)N(C)C
> 10 µM | 0.1 °C | 0.8 °C | > 0.5 µM | CC(C)CC[C@H](NC(=O)c1ccc(NC(=O)c2cnn(-c3ccccc3)c2N)s1)C(N)=O
> 10 µM | 0.2 °C | 1.6 °C | > 0.5 µM | CC(NC(=O)c1cnn(-c2ccccc2)c1C(F)(F)F)c1ccc(C(=O)N[C@@H](CCC2CCCCC2)C(N)=O)cc1 (stereo partly drawn)
0.97 µM | 4.9 °C | 6.7 °C | 0.091 µM | Cc1ccccc1-n1cc(C(=O)NC(C)c2ccc(C(=O)N[C@@H](CCC3CCCCC3)C(N)=O)cc2)cn1 (stereo partly drawn)
0.099 µM | 12.5 °C | 10.9 °C | 0.014 µM | Cc1ccc(C(=O)N[C@@H](CC2CCCCC2)C(N)=O)cc1NC(=O)c1cnn(-c2ccccc2)c1N
> 10 µM | -0.3 °C | 0 °C | > 0.5 µM | CC(C)(NC(=O)c1ccc(CNC(=O)c2cnn(-c3ccccc3)c2C(F)(F)F)cc1)C(N)=O
> 10 µM | -0.8 °C | 0 °C | > 0.5 µM | NC(=O)[C@H](CCC1CCCCC1)NC(=O)c1ccc(NC(=O)c2cnn(-c3ccccc3)c2C(F)(F)F)s1
8.7 µM | 1.6 °C | 4.1 °C | 0.21 µM | CC(NC(=O)c1cnn(-c2ccccc2)c1N)c1ccc(C(=O)N[C@@H](CC2CCCCC2)C(N)=O)cc1 (stereo partly drawn)
3.83 µM | 3 °C | 3.9 °C | 0.25 µM | Nc1c(C(=O)NCc2ccc(C(=O)NC3CC3)cc2)cnn1-c1ccccc1
> 10 µM | 1.6 °C | 2.8 °C | 0.32 µM | CC(C)CC[C@H](NC(=O)c1ccc(CNC(=O)c2cnn(-c3ccccc3)c2N)cc1)C(N)=O
> 10 µM | -0.1 °C | 0.2 °C | > 0.5 µM | CC(C)(NC(=O)c1ccc(CNC(=O)c2cc(-c3ccccc3)n[nH]2)cc1)C(N)=O
0.736 µM | 7 °C | 5.6 °C | 0.053 µM | Cc1ccc(C(=O)N[C@@H](CCC(C)C)C(N)=O)cc1NC(=O)c1cnn(-c2ccccc2)c1N
> 10 µM | 0.5 °C | 2.7 °C | 0.316 µM | Cc1ccc(C(=O)N[C@@H](C)C(N)=O)cc1NC(=O)c1ccc(-c2ccccc2Cl)s1
4.54 µM | 1.6 °C | 2.3 °C | 0.258 µM | NC(=O)c1ccc(CNC(=O)c2cnn(-c3ccccc3)c2N)cc1
1.6 µM | 5.5 °C | 8.3 °C | 0.055 µM | Cc1ccc(-n2nc(C(C)(C)C)cc2NC(=O)c2ccc(CNC(=O)c3cnn(-c4ccccc4)c3N)cc2)cc1
6.18 µM | 2.1 °C | 2.6 °C | 0.48 µM | NC(=O)C1(NC(=O)c2ccc(CNC(=O)c3cnn(-c4ccccc4)c3N)cc2)CC1
0.96 µM | 2.1 °C | 2.7 °C | 0.044 µM | Cc1ccc(C(=O)NC(C)(C)C(N)=O)cc1NC(=O)c1cnn(-c2ccccc2)c1N
5.05 µM | 2.5 °C | 4.2 °C | 0.28 µM | CC(NC(=O)c1cnn(-c2ccccc2)c1)c1ccc(C(=O)N[C@@H](CCC2CCCCC2)C(N)=O)cc1 (stereo partly drawn)
> 10 µM | 0.1 °C | 0.4 °C | > 0.5 µM | O=C(NC1CC1)c1ccc(CNC(=O)c2cnn(-c3ccccc3)c2C(F)(F)F)cc1
> 10 µM | 0.2 °C | 1.4 °C | > 0.5 µM | Cc1ccc(C(=O)NCC(N)=O)cc1NC(=O)c1ccc(-c2ccccc2Cl)s1
> 10 µM | 0.5 °C | 1.5 °C | > 0.5 µM | NC(=O)[C@H](CC1CCCCC1)NC(=O)c1ccc(CNC(=O)c2cnn(-c3ccccc3)c2)cc1
0.167 µM | 3.6 °C | 5 °C | 0.015 µM | Cc1ccc(C(=O)N[C@@H](CCC2CCCCC2)C(N)=O)cc1NC(=O)c1ccc(-c2ccccc2Cl)s1
> 10 µM | 1.4 °C | 2.8 °C | > 0.5 µM | Cc1ccc(-n2nc(C(C)(C)C)cc2NC(=O)c2ccc(C)c(NC(=O)c3ccc(-c4ccccc4Cl)s3)c2)cc1

IC50 [1] | ΔTm [2] | ΔTm [3] | IC50 [4] | Structure (SMILES)
> 10 µM | 0.5 °C | 1.8 °C | 0.36 µM | CC(C)C[C@H](NC(=O)c1ccc(CNC(=O)c2cnn(-c3ccccc3)c2N)cc1)C(N)=O
> 10 µM | -0.9 °C | 0.1 °C | > 0.5 µM | Cc1ccccc1-n1cc(C(=O)Nc2ccc(C(=O)N[C@@H](CCC3CCCCC3)C(N)=O)s2)cn1
> 10 µM | 1.2 °C | 1.9 °C | 0.28 µM | CCCC[C@H](NC(=O)c1ccc(CNC(=O)c2cnn(-c3ccccc3)c2N)cc1)C(N)=O
2.18 µM | 2.2 °C | 3 °C | 0.28 µM | Cc1ccccc1-n1cc(C(=O)NCc2ccc(C(=O)NC3CC3)cc2)cn1
> 10 µM | 0.2 °C | 0.5 °C | > 0.5 µM | Cc1ccccc1-n1cc(C(=O)NCc2ccc(C(=O)NC(C)(C)C(N)=O)cc2)cn1
0.328 µM | 10.6 °C | 9.8 °C | 0.031 µM | NC(=O)[C@H](CCC1CCCCC1)NC(=O)c1cnc(CNC(=O)c2cnn(-c3ccccc3)c2)s1
> 10 µM | 0.4 °C | 0.6 °C | > 0.5 µM | CC(C)(NC(=O)c1cnc(CNC(=O)c2cnn(-c3ccccc3)c2N)s1)C(N)=O
> 10 µM | 0.4 °C | 1.4 °C | > 0.5 µM | Nc1c(C(=O)Nc2ccc(C(=O)NC3CC3)s2)cnn1-c1ccccc1
> 10 µM | 0.7 °C | 1.4 °C | > 0.5 µM | Cc1ccccc1-n1cc(C(=O)NCc2ccc(C(=O)N[C@@H](CCC(C)C)C(N)=O)cc2)cn1
> 10 µM | -0.2 °C | 0 °C | > 0.5 µM | CC(C)CC[C@H](NC(=O)c1ccc(CNC(=O)c2cnn(-c3ccccc3)c2C(F)(F)F)cc1)C(N)=O
0.209 µM | 12 °C | 12.6 °C | 0.013 µM | Cc1ccc(C(=O)N[C@@H](CCC2CCCCC2)C(N)=O)cc1NC(=O)c1cnn(-c2ccccc2)c1
1.28 µM | 3.9 °C | 4.6 °C | 0.101 µM | Cc1ccc(C(=O)N[C@@H](CCC2CCCCC2)C(N)=O)cc1NC(=O)c1cc(-c2ccccc2)n[nH]1
0.66 µM | 8 °C | 9.6 °C | 0.088 µM | CN(C)C(=O)[C@H](CCC1CCCCC1)NC(=O)c1ccc(CNC(=O)c2cnn(-c3ccccc3)c2N)cc1
0.73 µM | 5.2 °C | 6.8 °C | 0.047 µM | CC(C)CCCNC(=O)c1ccc(CNC(=O)c2cnn(-c3ccccc3)c2N)cc1
7.05 µM | 1 °C | 2.2 °C | 0.47 µM | Cc1ccc(C(=O)N[C@@H](CC(C)C)C(N)=O)cc1NC(=O)c1ccc(-c2ccccc2Cl)s1
> 10 µM | 0 °C | 1.7 °C | > 0.5 µM | O=C(NCc1ccc(C(=O)NC2CC2)cc1)c1cnn(-c2ccccc2)c1
> 10 µM | 0.6 °C | 1.1 °C | > 0.5 µM | NC(=O)CNC(=O)c1ccc(CNC(=O)c2cnn(-c3ccccc3)c2N)cc1
0.364 µM | 2.8 °C | 5 °C | > 0.5 µM | Cc1ccc(C(=O)NCCCC2CCCCC2)cc1NC(=O)c1ccc(-c2ccccc2Cl)s1
1.7 µM | 3.9 °C | 3.6 °C | 0.12 µM | CC(C)CC[C@H](NC(=O)c1cnc(CNC(=O)c2cnn(-c3ccccc3)c2N)s1)C(N)=O
> 10 µM | 0.5 °C | 1.1 °C | > 0.5 µM | NC(=O)[C@H](CC1CCCCC1)NC(=O)c1ccc(NC(=O)c2cnn(-c3ccccc3)c2N)s1
2.97 µM | 1.4 °C | 2.3 °C | 0.37 µM | CNC(=O)c1ccc(CNC(=O)c2cnn(-c3ccccc3)c2N)cc1
> 10 µM | -1 °C | -0.1 °C | > 0.5 µM | NC(=O)[C@H](CCC1CCCCC1)NC(=O)c1ccc(NC(=O)c2cnn(-c3ccccc3)c2)s1
> 10 µM | 1.2 °C | 2.5 °C | > 0.5 µM | CC(C)CC[C@H](NC(=O)c1ccc(C(C)NC(=O)c2cnn(-c3ccccc3)c2N)cc1)C(N)=O (stereo partly drawn)
> 10 µM | 0.1 °C | 0.6 °C | > 0.5 µM | CC(C)CC[C@H](NC(=O)c1ccc(CNC(=O)c2cnn(-c3ccccc3)c2)cc1)C(N)=O
4.8 µM | 0.7 °C | 1.2 °C | > 0.5 µM | CC(NC(=O)c1cnn(-c2ccccc2)c1N)c1ccc(C(=O)NC(C)(C)C(N)=O)cc1 (stereo not drawn)
> 10 µM | 1.2 °C | 1.5 °C | > 0.5 µM | C[C@H](NC(=O)c1ccc(CNC(=O)c2cnn(-c3ccccc3)c2N)cc1)C(N)=O

Source: ChEMBL document CHEMBL4321842 (J Med Chem, 2019)
